pIC50: −log10 of the molar value.
Experiments:
[1] = system: Cavia porcellus; assay: In vivo inhibitory activity against PAF-induced bronchoconstriction in guinea pigs at a dose of 0.01 mg/kg; assay type: functional
[2] = system: Mus musculus; assay: In vivo inhibitory activity (1 mg/kg) against endotoxin-induced hemoconcentration in ICR mice with endotoxin concentration of 55 mg/kg; assay type: functional
[3] = system: Cavia porcellus; assay: In vivo PAF-induced bronchoconstriction in guinea pigs at a dose of 0.01 mg/kg; assay type: functional
[4] = system: Rattus norvegicus; assay: In vivo inhibitory activity against PAF-induced hypertension in SD rats by ip administration; assay type: functional
[5] = system: Mus musculus; assay: Survival ratio of ICR mice by the administration (0.3 mg/kg) along with endotoxin (55mg/Kg, ip) after 42h; assay type: functional
[6] = system: Mus musculus; assay: Survival ratio of ICR mice by the administration (0.3 mg/kg) along with endotoxin (55mg/Kg, ip) after 48 hr; assay type: functional
[7] = system: Mus musculus; assay: Survival ratio of ICR mice by the administration (0.3 mg/kg) along with endotoxin (55mg/Kg, ip) after 24 hr; assay type: functional
[8] = system: Mus musculus; assay: Survival ratio of ICR mice by the administration (0.3 mg/kg) along with endotoxin (55mg/Kg, ip) after 1 hr; assay type: functional
[9] = system: Mus musculus; assay: Survival ratio of ICR mice by the administration (0.3 mg/kg) along with endotoxin (55mg/Kg, ip) after 18 h; assay type: functional
[10] = system: Cavia porcellus; assay: In vivo inhibitory activity against platelet aggregation in guinea pigs; assay type: functional, organism-based
[11] = system: Mus musculus; assay: Survival ratio of ICR mice by the administration (0.3 mg/kg) along with endotoxin (55mg/Kg, ip) after 66h; assay type: functional
[12] = system: Mus musculus; assay: Survival ratio of ICR mice by the administration (0.3 mg/kg) along with endotoxin (55mg/Kg, ip) after 2 hr; assay type: functional
[13] = In vitro inhibitory activity against PAF-induced aggregation of rabbit platelets

Structure (SMILES)	inhibition in vivo at 0.01 mg/kg [1] [%]	Change [2] [%]	Absolute [3] [%]	ED50 [4] [mg/kg]	Change of hemoconcentration [2]	other results
CCCCCCCCCCCCCCCCCCNC(=O)OCC(COC(=O)N(Cc1cccc[n+]1CC)C(C)=O)OC.[Cl-] (stereo unspecified) [CV-6209]	87	48	12	0.35		
CCCCCCCCCCCCCCCCNC(=O)OC[C@@H]1C[C@@H](COC(=O)N(Cc2cccc[n+]2CC)C(C)=O)S1.[Cl-]	92		7	0.16		Survival ratio [5]: 60; Survival ratio [6]: 60; Survival ratio [7]: 73; Survival ratio [8]: 100; Survival ratio [9]: 80; pIC50 [10]: 7.68; Survival ratio [11]: 60; Survival ratio [12]: 100
C[C@@H]1C(=O)O[C@H]2C(O)[C@@]34[C@H]5C[C@@H](C(C)(C)C)[C@]36[C@@H](OC(=O)[C@@H]6O)O[C@@]4(C(=O)O5)[C@@]12O (single isomer, unassigned) [GINKOLIDE B]						pIC50 [13]: 6.38
CCCCCCCCCCCCCC(=O)OC(CCCCCCCCCCC)CC(=O)OC1C(NC(=O)CC(CCCCCCCCCCC)OC(=O)CCCCCCCCCCC)C(OC2CC(OC(=O)CC(O)CCCCCCCCCCC)C(NC(=O)CC(O)CCCCCCCCCCC)C(O)O2)OC(CO)C1OP(=O)(O)O.CCCCCCCCCCCCCCCCCCNC(=O)OC[C@H]1C[C@H](COC(=O)N(Cc2cccc[n+]2CC)C(C)=O)O1.[I-] (stereo unspecified)		53			12.7	
CCCCCCCCCCCCCC(=O)OC(CCCCCCCCCCC)CC(=O)O[C@@H]1[C@@H](NC(=O)CC(CCCCCCCCCCC)OC(=O)CCCCCCCCCCC)[C@H](O[C@@H]2C[C@H](OC(=O)CC(O)CCCCCCCCCCC)[C@@H](NC(=O)CC(O)CCCCCCCCCCC)[C@@H](O)O2)O[C@H](CO)[C@H]1OP(=O)(O)O.CCCCCCCCCCCCCCCCCCNC(=O)OC[C@H]1C[C@H](COC(=O)N(Cc2cccc[n+]2CC)C(C)=O)C1.[I-] (stereo partly specified)		25			5.9	
CCCCCCCCCCCCCC(=O)OC(CCCCCCCCCCC)CC(=O)OC1C(NC(=O)CC(CCCCCCCCCCC)OC(=O)CCCCCCCCCCC)C(OC2CC(OC(=O)CC(O)CCCCCCCCCCC)C(NC(=O)CC(O)CCCCCCCCCCC)C(O)O2)OC(CO)C1OP(=O)(O)O (stereo unspecified)		100			24	
CCCCCCCCCCCCCCCCCCNC(=O)OC[C@H]1C[C@H](COC(=O)N(Cc2cccc[n+]2CC)C(C)=O)C1.[I-]	87		12	0.58		Survival ratio [5]: 40; Survival ratio [6]: 33; Survival ratio [7]: 73; Survival ratio [8]: 100; Survival ratio [9]: 80; pIC50 [10]: 7.25; Survival ratio [11]: 27; Survival ratio [12]: 100
CCCCCCCCCCCCCCCCCCNC(=O)OC[C@H]1C[C@H](COC(=O)N(Cc2cccc[n+]2CC)C(C)=O)N1C(C)=O.[Cl-]	95		5	0.33		Survival ratio [5]: 53; Survival ratio [6]: 53; Survival ratio [7]: 73; Survival ratio [8]: 100; Survival ratio [9]: 73; pIC50 [10]: 7.54; Survival ratio [11]: 53; Survival ratio [12]: 100
CCCCCCCCCCCCCC(=O)OC(CCCCCCCCCCC)CC(=O)OC1C(NC(=O)CC(CCCCCCCCCCC)OC(=O)CCCCCCCCCCC)C(OC2CC(OC(=O)CC(O)CCCCCCCCCCC)C(NC(=O)CC(O)CCCCCCCCCCC)C(O)O2)OC(CO)C1OP(=O)(O)O.CCCCCCCCCCCCCCCCNC(=O)OC[C@@H]1C[C@@H](COC(=O)N(Cc2cccc[n+]2CC)C(C)=O)S1.[Cl-] (stereo unspecified)		53			12.7	
CCCCCCCCCCCCCC(=O)OC(CCCCCCCCCCC)CC(=O)OC1C(NC(=O)CC(CCCCCCCCCCC)OC(=O)CCCCCCCCCCC)C(OC2CC(OC(=O)CC(O)CCCCCCCCCCC)C(NC(=O)CC(O)CCCCCCCCCCC)C(O)O2)OC(CO)C1OP(=O)(O)O.CCCCCCCCCCCCCCCCCCNC(=O)OC[C@@H]1C[C@@H](COC(=O)N(Cc2cccc[n+]2CC)C(C)=O)N1C(C)=O.[Cl-] (stereo unspecified)		55			13.1	
CCCCCCCCCCCCCCCCCCNC(=O)OC[C@H]1C[C@H](COC(=O)N(Cc2cccc[n+]2CC)C(C)=O)O1.[I-]	92		7	0.28		

From ChEMBL document CHEMBL1128151, “Synthesis and bioactivities of heterocyclic lipids as PAF antagonists. 2” (Bioorg Med Chem Lett, 1995)
